# Like-named read-outs stand apart in the source and are kept apart here.
# How the values were obtained:
# Par6 = test: theLiTE assay: distribution of GFP-tagged Par6 in live follicular epithelia; settings: for Par6 modulation (distribution of Par6 protein): live follicular epithelia of Drosophila egg chamber, Par6-GFP
# Source text: The present inventors used a unique approach in order to identify compounds which reinforce the TJ system via the control of TJ initiation. Par6 was selected as the biological target; it acts as a regulator of tight junction initiation. Par6 has a polar distribution, with a defined zone of high abundance at one end of the cell. This Par6 distribution is key to the biological function, not just the absolute Par6 protein level.
# Standard tools for RNA and protein level measurement are not adequate to discover compounds which target Par6 and the present inventors devised and implemented an assay where the distribution of Par6 in living tissues can be monitored: Thelial Live Targeted Epithelia (theLiTE™; U.S. Pat. No. 9,416,391).
# The technology of theLITE™ allows monitoring the distribution of Par6—an intracellular protein that controls tight junction assembly. The assay was performed in live follicular epithelia of the egg chamber of the fruit fly Drosophila. Par6 was tagged with a green fluorescence protein (GFP) and its distribution within the cell was monitored by the GFP signal. […] This protein distribution is key to the biological function, not just the absolute protein level.
# In theLiTE, the present inventors tested whether compounds modulate the distribution of Par6 protein in live follicular epithelia. In theLiTE more than 20 live egg chambers were exposed to test each compound and monitored for Par6 distribution after a set incubation time; any positive compounds were tested in three separate runs of experiments and over a broad range of concentrations. The full method is disclosed in the US patent document. […] The positive control in FIG. 2, indicated with a “+” sign, is Antimycin A, at a concentration of 40 micromolar. The negative control, indicated with a “−” sign is the solvent medium (Insect cell culture medium plus 10% dimethyl sulfoxide).
# [1] = test system: subjects suffering from GERD; test: 6-weeks treatment of GERD subjects, synergy between active compounds; format: in vivo, human; settings: for subjects reporting reduction in severity of GERD, as well as reduced usage of PPIs: 500 mg twice daily oral, 14 patients per group; for effect on GERD (in words): twice daily oral
# Protocol: In a 6-weeks treatment, 50 subjects suffering from GERD receive a twice daily oral dose (1 hour before the morning and the evening meal) with either • Quercetin (500 mg); • Myricetin (500 mg); • Quercetin (500 mg) and Myricetin (500 mg); • Quercetin (500 mg) and Genistein (300 mg); • Myricetin (500 mg) and Berberine (750 mg).
# [2] = test system: patients with non-erosive Gastro esophageal Reflux Disease (GERD); settings: cited from earlier work
Compound,Par6 modulation (distribution of Par6 protein) (Par6),toxicity (Par6; screen of over 2000 compounds),"subjects reporting reduction in severity of GERD, as well as reduced usage of PPIs [1]",effect on GERD (in words) [1],toxicity (Par6),"esophageal epithelial barrier function, resistance to injury upon contact with hydrochloric acid ([2]; 500 mg orally twice daily (tablet) for 6 weeks, endoscopic biopsies before and after)","heartburn symptom improvement ([2]; 14 GERD sufferers, twice 500 mg daily, 6-week period)"
"COc1ccc2cc3[n+](cc2c1OC)CCc1cc2c(cc1-3)OCO2 [Berberine, 5,6-dihydro-9,10-dimehtoxybenzo[g]-1,3-benzodioxolo[5,6-a]quinolizinium]",do not modulate Par6,–,–,–,–,–,–
"O=c1c(-c2ccc(O)cc2)coc2cc(O)cc(O)c12 [Genistein, 5,7-dihydro-3-(4-hydroxyphenyl)chromen-4-one]",do not modulate Par6,–,–,–,–,–,–
"O=c1c(O)c(-c2cc(O)c(O)c(O)c2)oc2cc(O)cc(O)c12 [Myricetin, 3,5,7-Trihydroxy-2-(3,4,5-trihydroxyphenyl)-4H-1-benzopyran-4-one]",potent Par6 modulation,low toxicity,"10 subjects report reduction in severity of GERD,",reduction of GERD severity,–,–,–
"O=c1c(O)c(-c2ccc(O)c(O)c2)oc2cc(O)cc(O)c12 [Quercetin, 2-(3,4-dihydroxyphenyl)-3,5,7-trihydroxychromen-4-one]",potent Par6 modulation,–,"12 subjects report reduction in severity of GERD,",reduction of GERD severity,low toxicity,increases esophageal epithelial barrier function,no report of consistent effects
Antimycin A [reference compound],most potent compound in the test,toxic,–,–,–,–,–
